The record followed here is ChEMBL document CHEMBL1135104, “A novel type of nonsteroidal estrone sulfatase inhibitors” (Bioorg Med Chem Lett, 2002).

Broadly, the IC50 is the concentration that inhibits the measured activity by half. As a reminder, the LD50 is the dose at which mortality reaches 50%.

The first data set has as its target T1, Steryl-sulfatase (Homo sapiens, UniProt P08842).
T1 sequence (P08842 whole entry): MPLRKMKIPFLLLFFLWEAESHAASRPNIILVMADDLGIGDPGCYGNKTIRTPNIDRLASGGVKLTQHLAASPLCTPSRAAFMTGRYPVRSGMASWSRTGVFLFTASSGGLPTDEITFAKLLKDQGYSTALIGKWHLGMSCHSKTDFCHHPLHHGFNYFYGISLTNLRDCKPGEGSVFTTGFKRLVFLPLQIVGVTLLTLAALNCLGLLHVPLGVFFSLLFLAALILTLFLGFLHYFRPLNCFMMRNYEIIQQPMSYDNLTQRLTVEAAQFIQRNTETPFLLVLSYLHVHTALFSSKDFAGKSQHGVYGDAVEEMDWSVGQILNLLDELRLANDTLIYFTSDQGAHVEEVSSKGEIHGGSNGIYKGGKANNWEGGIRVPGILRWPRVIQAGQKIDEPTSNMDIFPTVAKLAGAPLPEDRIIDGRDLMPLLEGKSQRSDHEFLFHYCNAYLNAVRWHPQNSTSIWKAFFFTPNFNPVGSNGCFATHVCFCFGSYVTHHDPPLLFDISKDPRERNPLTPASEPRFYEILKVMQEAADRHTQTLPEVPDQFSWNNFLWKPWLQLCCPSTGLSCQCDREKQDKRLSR
As to the kind of experiment: Inhibitory activity againist Estrone sulfatase from MCF-7 cells ([…]).
Details: not given
Type of data set: cell-based, MCF7.
The compound `COc1c2c(c(O)c3c1C(=O)c1c(cc(O)c(C)c1O)C3=O)-c1c(cc(/C=N/N=C(\S)N(C)C3CCCCC3)c(C(=O)O)c1O)CC2` gave an IC50 of 1.4 µM.

As to `CN/C(S)=N/N=C/c1cc2c(c(O)c1C(=O)O)-c1c(O)c3c(c(OC)c1CC2)C(=O)c1c(cc(O)c(C)c1O)C3=O`, inhibition was half-maximal at 29 µM (IC50).

As to `COc1c2c(c(O)c3c1C(=O)c1c(cc(O)c(C)c1O)C3=O)-c1c(cc(/C=N/N=C(\S)N3CCCCC3)c(C(=O)O)c1O)CC2`, 8 µM corresponded to half-maximal inhibition (IC50).

Compound `CCC(CC)/N=C(\S)N/N=C/c1cc2c(c(O)c1C(=O)O)-c1c(O)c3c(c(OC)c1CC2)C(=O)c1c(cc(O)c(C)c1O)C3=O` registered an IC50 of 18 µM.

Compound `COc1c2c(c(O)c3c1C(=O)c1c(cc(O)c(C)c1O)C3=O)-c1c(cc(/C=N/N=C(\S)Nc3ccc(C)cc3)c(C(=O)O)c1O)CC2` came in with an IC50 of 12 µM.

Consider `COc1c2c(c(O)c3c1C(=O)c1c(cc(O)c(C)c1O)C3=O)-c1c(cc(/C=N/NC(=O)NC3CCCCC3)c(C(=O)O)c1O)CC2`, for which the IC50 is 7 µM.

Consider `COc1c2c(c(O)c3c1C(=O)c1c(cc(O)c(C)c1O)C3=O)-c1c(cc(/C=N/N=C(\S)NCC(C)C)c(C(=O)O)c1O)CC2`, for which 11 µM corresponded to half-maximal inhibition (IC50).

In turn, `COc1c2c(c(O)c3c1C(=O)c1c(cc(O)c(C)c1O)C3=O)-c1c(cc(/C=N/NC(=O)Nc3ccccc3)c(C(=O)O)c1O)CC2` gave an IC50 of over 100 µM.

Regarding `COc1c2c(c(O)c3c1C(=O)c1c(cc(O)c(C)c1O)C3=O)-c1c(cc(/C=N/N=C(\S)Nc3ccccc3)c(C(=O)O)c1O)CC2`, half-maximal inhibition (IC50) required 4.8 µM.

Turning to `CCCCCCCCCCCC/N=C(\S)N/N=C/c1cc2c(c(O)c1C(=O)O)-c1c(O)c3c(c(OC)c1CC2)C(=O)c1c(cc(O)c(C)c1O)C3=O`, inhibition was half-maximal at 50 µM (IC50).

`COc1c2c(c(O)c3c1C(=O)c1c(cc(O)c(C)c1O)C3=O)-c1c(cc(/C=N/N=C(\S)NN3CCCCC3)c(C(=O)O)c1O)CC2`: 6 µM corresponded to half-maximal inhibition (IC50).

`COc1c2c(c(O)c3c1C(=O)c1c(cc(O)c(C)c1O)C3=O)-c1c(cc(/C=N/N=C(\S)NC3CCC(C)CC3)c(C(=O)O)c1O)CC2` (centres undefined) yielded an IC50 of 4 µM.

In the case of `COc1c2c(c(O)c3c1C(=O)c1c(cc(O)c(C)c1O)C3=O)-c1c(cc(/C=N/N=C(\S)NC3CCCC3)c(C(=O)O)c1O)CC2`, 3.2 µM corresponded to half-maximal inhibition (IC50).

For the compound `COc1c2c(c(O)c3c1C(=O)c1c(cc(O)c(C)c1O)C3=O)-c1c(cc(/C=N/N=C(\S)NC3CCCCCCC3)c(C(=O)O)c1O)CC2`, the IC50 is 15 µM.

For the compound `COc1c2c(c(O)c3c1C(=O)c1c(cc(O)c(C)c1O)C3=O)-c1c(cc(/C=N/N=C(\S)NC3CC3)c(C(=O)O)c1O)CC2`, the midpoint of inhibition, the IC50, lay at 22 µM.

On to `COc1c2c(c(O)c3c1C(=O)c1c(cc(O)c(C)c1O)C3=O)-c1c(cc(/C=N/N=C(\S)Nc3ccc(Cl)cc3)c(C(=O)O)c1O)CC2`, for which the IC50 was over 100 µM.

In turn, `CCCCC/N=C(\S)N/N=C/c1cc2c(c(O)c1C(=O)O)-c1c(O)c3c(c(OC)c1CC2)C(=O)c1c(cc(O)c(C)c1O)C3=O` displayed an IC50 of 13 µM.

`CCCCCCC/N=C(\S)N/N=C/c1cc2c(c(O)c1C(=O)O)-c1c(O)c3c(c(OC)c1CC2)C(=O)c1c(cc(O)c(C)c1O)C3=O` showed an IC50 of 9 µM.

For the compound `COc1c2c(c(O)c3c1C(=O)c1c(cc(O)c(C)c1O)C3=O)-c1c(cc(/C=N/N=C(\S)NC3CCCCCC3)c(C(=O)O)c1O)CC2`, inhibition was half-maximal at 1.8 µM (IC50).

As to `CC/N=C(\S)N/N=C/c1cc2c(c(O)c1C(=O)O)-c1c(O)c3c(c(OC)c1CC2)C(=O)c1c(cc(O)c(C)c1O)C3=O`, the IC50 worked out at 16 µM.

In turn, `CCCCCC/N=C(\S)N/N=C/c1cc2c(c(O)c1C(=O)O)-c1c(O)c3c(c(OC)c1CC2)C(=O)c1c(cc(O)c(C)c1O)C3=O` registered an IC50 of 8 µM.

With `CCCCCCCCC/N=C(\S)N/N=C/c1cc2c(c(O)c1C(=O)O)-c1c(O)c3c(c(OC)c1CC2)C(=O)c1c(cc(O)c(C)c1O)C3=O`, the IC50 was determined as 19 µM.

Compound `CCC/N=C(\S)N/N=C/c1cc2c(c(O)c1C(=O)O)-c1c(O)c3c(c(OC)c1CC2)C(=O)c1c(cc(O)c(C)c1O)C3=O` displayed an IC50 of 20 µM.

In turn, `COc1c2c(c(O)c3c1C(=O)c1c(cc(O)c(C)c1O)C3=O)-c1c(cc(/C=N/NC(=S)NC3CCCCC3)c(C(=O)O)c1O)CC2` [MHL CYCLOHEXYLTHIOSEMICARBAZONE] registered an IC50 of 0.46 µM.

Consider `Cc1cc(=O)oc2cc(OS(N)(=O)=O)ccc12`, for which the IC50 was determined as 2.6 µM.

The compound `COc1c2c(c(O)c3c1C(=O)c1c(cc(O)c(C)c1O)C3=O)-c1c(cc(/C=N/N=C(\S)NC(C)C)c(C(=O)O)c1O)CC2` returned an IC50 of 24 µM.

With `COc1c2c(c(O)c3c1C(=O)c1c(cc(O)c(C)c1O)C3=O)-c1c(cc(/C=N/N=C(\S)NC(C)(C)C)c(C(=O)O)c1O)CC2`, 25 µM corresponded to half-maximal inhibition (IC50).

As to `COc1c2c(c(O)c3c1C(=O)c1c(cc(O)c(C)c1O)C3=O)-c1c(cc(/C=N/N=C(\S)Oc3ccccc3)c(C(=O)O)c1O)CC2`, the IC50 was over 100 µM.

`COc1ccc(N/C(S)=N/N=C/c2cc3c(c(O)c2C(=O)O)-c2c(O)c4c(c(OC)c2CC3)C(=O)c2c(cc(O)c(C)c2O)C4=O)cc1` had an IC50 of 23 µM.

The compound `CCCC/N=C(\S)N/N=C/c1cc2c(c(O)c1C(=O)O)-c1c(O)c3c(c(OC)c1CC2)C(=O)c1c(cc(O)c(C)c1O)C3=O` returned an IC50 of 6 µM.

In turn, `COc1c2c(c(O)c3c1C(=O)c1c(cc(O)c(C)c1O)C3=O)-c1c(cc(/C=N/N=C(/N)S)c(C(=O)O)c1O)CC2` had an IC50 of over 100 µM.

Regarding `COc1c2c(c(O)c3c1C(=O)c1c(cc(O)c(C)c1O)C3=O)-c1c(cc(/C=N/NC(=O)Oc3ccccc3)c(C(=O)O)c1O)CC2`, the IC50 was over 100 µM.

The compound `COc1c2c(c(O)c3c1C(=O)c1c(cc(O)c(C)c1O)C3=O)-c1c(cc3c(c1O)C(=O)OC3O)CC2` (centres undefined) yielded an IC50 of 41 µM.

Tested on in another data set: not listed separately
As to the kind of experiment: Acute toxicity in the hens fertile egg screening test (HEST). Set-up: species or system Gallus gallus. The note with it: chicken.
Regarding `COc1c2c(c(O)c3c1C(=O)c1c(cc(O)c(C)c1O)C3=O)-c1c(cc(/C=N/NC(=S)NC3CCCCC3)c(C(=O)O)c1O)CC2` [MHL CYCLOHEXYLTHIOSEMICARBAZONE], the LD50 was over 50 mg/kg.
